Source: patent US8809232B2, “Herbicidal compositions comprising 4-amino-3-chloro-5-fluoro-6-(4-chloro-2-fluoro-3-methoxyphenyl) pyridine-2-carboxylic acid or a derivative thereof and halosulfuron, pyrazosulfuron and esprocarb” (Dow Agrosciences LLC, priority 2012, dated 2014)
Several values for one entry are separate records, joined by “and”; a condition that tells them apart may be missing. Equal values may be shown once.

Tests used:
CYPRO = assay: In-water applied herbicidal mixtures, greenhouse, transplanted paddy rice weeds; assay type: in vivo, Cyperus rotundus L.
Procedure: (§1) Weed seeds or nutlets of the desired test plant species were planted in puddled soil (mud) prepared by mixing a shredded, non-sterilized mineral soil (50.5 percent silt, 25.5 percent clay, and 24 percent sand, with a pH of about 7.6 and an organic matter content of about 2.9 percent) and water at a 1:1 volumetric ratio. The prepared mud was dispensed in 365 mL aliquots into 16-ounce (oz.) non-perforated plastic pots with a surface area of 86.59 square centimeters (cm^2) leaving a headspace of 3 centimeters (cm) in each pot Mud was allowed to dry overnight prior to planting or transplanting. Rice seeds were planted in Sun Gro MetroMix® 306 planting mixture, which typically has a pH of 6.0 to 6.8 and an organic matter content of about 30 percent, in plastic plug trays. Seedlings at the second or third leaf stage of growth were transplanted into 840 mL of mud contained in 32-oz. non-perforated plastic pots with a surface area of 86.59 cm^2 4 days prior to herbicide application. The paddy was created by filling the headspace of the pots with 2.5 to 3 cm of water. When required to ensure good germination and healthy plants, a fungicide treatment and/or other chemical or physical treatment was applied. The plants were grown for 4-22 days in a greenhouse with an approximate 14 hr photoperiod which was maintained at about 29′C during the day and 26° C. during the night. Nutrients were added as Osmocote® (19:6:12, N:P:K^+ minor nutrients) at 2 g per 16-oz. pot and 4 g per 32-oz. pot. Water was added on a regular basis to maintain the paddy flood, and supplemental lighting was provided with overhead metal halide 1000-Watt lamps as necessary. The plants were employed for testing when they reached the first through fourth true leaf stage.
(§2) Treatments consisted of the acid or esters of 4-amino-3-chloro-5-fluoro-6-(4-chloro-2-fluoro-3-methoxy-phenyl)pyridine-2-carboxylic acid (compound A) each formulated as an SC (suspension concentrate) and various herbicidal components alone and in combination. Forms of compound A were applied on an acid equivalent basis.
(§3) Other herbicidal components were applied on an active ingredient basis and included acetolactate synthase (ALS)-inhibiting herbicides formulated as Permit® 75 WDG, pyrazosulfuron-ethyl formulated as Agreen® WG or Sirius® G, and VLCFA inhibiting herbicide esprocarb (technical grade material).
(§4) Treatment requirements for each compound or herbicidal component were calculated based upon the rates being tested, the concentration of active ingredient or acid equivalent in the formulation, an application volume of 2 mL per component per pot, and an application area of 86.59 cm^2 per pot.
(§5) For formulated compounds, a measured amount was placed in an individual 100 or 200 mL glass vial and was dissolved in a volume of 1.25% (v/v) Agri-Dex® crop oil concentrate to obtain application solutions.
(§6) For technical grade compounds, a weighed amount was placed in an individual 100 to 200 mL glass vial and was dissolved in a volume of acetone to obtain concentrated stock solutions. […] The concentrated stock solutions obtained were diluted with an equivalent volume of an aqueous mixture containing 2.5% (v/v) crop oil concentrate so that the final application solutions contained 1.25% (v/v) crop oil concentrate.
(§7) Applications were made by injecting with a pipetter appropriate amounts of the application solutions, individually and sequentially, into the aqueous layer of the paddy. Control plants were treated in the same manner with the solvent blank. Applications were made so that all treated plant material received the same concentrations of acetone and crop oil concentrate.
(§8) The treated plants and control plants were placed in a greenhouse as described above and water was added as needed to maintain a paddy flood. […]

LEFCH [1] = assay: as above; assay type: in vivo, Leptochloa chinensis (L.) Nees; details: 4.38 g ae/ha
Procedure: as §1, with “Water was added on a regular basis to maintain the paddy flood, and supplemental lighting was provided with overhead metal halide 1000-Watt lamps as necessary. The plants were employed for testing when they reached the first through fourth true leaf stage.” left out
as §4
For formulated compounds, a measured amount was placed in an individual 100 or 200 mL glass vial and was dissolved in a volume of 1.25% (v/v) Agri-Dex® crop oil concentrate to obtain application solutions. […]

FIMMI = assay: as above; assay type: in vivo, Fimbristylis miliacea (L.) Vahl; details: 4.38 g ae/ha
Procedure: as §1, §2, §3, §4, §5, §6
Applications were made by injecting with a pipetter appropriate amounts of the application solutions, individually and sequentially, into the aqueous layer of the paddy. […]

SCPJU = assay: Post-emergence foliar-applied herbicidal mixtures, greenhouse, direct seeded rice weeds; assay type: in vivo, Schoenoplectus juncoides (Roxb.) Palla; details: 8.75 g ae/ha
Description: Seeds or nutlets of the desired test plant species were planted in a soil matrix prepared by mixing a loam or sandy loam soil (e.g., 28.6 percent silt, 18.8 percent clay, and 52.6 percent sand, with a pH of about 5.8 and an organic matter content of about 1.8 percent) and calcareous grit in an 80 to 20 ratio. The soil matrix was contained in plastic pots with a volume of 1 quart and a surface area of 83.6 square centimeters (cm^2). When required to ensure good germination and healthy plants, a fungicide treatment and/or other chemical or physical treatment was applied. The plants were grown for 8-22 days in a greenhouse with an approximate 14 hr photoperiod which was maintained at about 29° C. during the day and 26° C. during the night. Nutrients (Peters Excel® 15-5-15 5-Ca 2-Mg and iron chelate) were applied in the irrigation solution as needed and water was added on a regular basis. Supplemental lighting was provided with overhead metal halide 1000-Watt lamps as necessary. The plants were employed for testing when they reached the first through fourth true leaf stage. […]
(§9) Treatment requirements were calculated based upon the rates being tested, the concentration of active ingredient or acid equivalent in the formulation, and a 12 mL application volume at a rate of 187 L/ha.
(§10) For treatments comprised of formulated compounds, measured amounts of compounds were placed individually in 25 mL glass vials and diluted in a volume of 1.25% (v/v) Agri-Dex® crop oil concentrated to obtain 12× stock solutions. […]
(§11) For treatments comprised of formulated and technical compounds, weighed amounts of the technical materials were placed individually in 25 mL glass vials and dissolved in a volume of 97:3 v/v acetone/DMSO to obtain 12× stock solutions, and measured amounts of the formulated compounds were placed individually in 25 mL glass vials and diluted in a volume of 1.5% (v/v) crop oil concentrate or water to obtain 12× stock solutions. […]

LEFCH [2] = assay: as above; assay type: in vivo, Leptochloa chinensis (L.) Nees
Description: (§12) Seeds or nutlets of the desired test plant species were planted in a soil matrix prepared by mixing a loam or sandy loam soil (e.g., 28.6 percent silt, 18.8 percent clay, and 52.6 percent sand, with a pH of about 5.8 and an organic matter content of about 1.8 percent) and calcareous grit in an 80 to 20 ratio. The soil matrix was contained in plastic pots with a volume of 1 quart and a surface area of 83.6 square centimeters (cm^2). When required to ensure good germination and healthy plants, a fungicide treatment and/or other chemical or physical treatment was applied. The plants were grown for 8-22 days in a greenhouse with an approximate 14 hr photoperiod which was maintained at about 29° C. during the day and 26° C. during the night. Nutrients (Peters Excel® 15-5-15 5-Ca 2-Mg and iron chelate) were applied in the irrigation solution as needed and water was added on a regular basis. Supplemental lighting was provided with overhead metal halide 1000-Watt lamps as necessary. The plants were employed for testing when they reached the first through fourth true leaf stage.
as §2, with “(Compound A),” for “(compound A)”, “concentrate),” for “concentrate)”
(§13) Other herbicidal components were applied on an active ingredient basis and included the acetolactate synthase (ALS)-inhibiting herbicides halosulfuron-methyl formulated as Permit® 75 WDG, pyrazosulfuron-ethyl formulated as Agreen® WG or Sirius® G, and the VLCFA inhibiting herbicide esprocarb (technical grade material).
as §9
(§14) For treatments comprised of formulated compounds, measured amounts of compounds were placed individually in 25 mL glass vials and diluted in a volume of 1.25% (v/v) Agri-Dex® crop oil concentrated to obtain 12× stock solutions. […] Application solutions were prepared by adding an appropriate amount of each stock solution (e.g., 1 mL) and diluted to the appropriate final concentrations with the addition of 10 mL of an aqueous mixture of 1.25% (v/v) crop oil concentrate so that the final spray solutions contained 1.25+/−0.05% (v/v) crop oil concentrate.
(§15) For treatments comprised of technical compounds, weighed amounts can be placed individually in 25 mL glass vials and dissolved in a volume of 97:3 v/v acetone/DMSO to obtain 12× stock solutions. […] Application solutions can be prepared by adding an appropriate amount of each stock solution (e.g., 1 mL) and diluted to the appropriate final concentrations with the addition of 10 mL of an aqueous mixture of 1.5% (v/v) crop oil concentrate so that the final spray solutions contain 1.25% (v/v) crop oil concentrate. When technical materials are used, the concentrated stock solutions can be added to the spray solutions so that the final acetone and DMSO concentrations of the application solutions are 16.2% and 0.5%, respectively.
(§16) For treatments comprised of formulated and technical compounds, weighed amounts of the technical materials were placed individually in 25 mL glass vials and dissolved in a volume of 97:3 v/v acetone/DMSO to obtain 12× stock solutions, and measured amounts of the formulated compounds were placed individually in 25 mL glass vials and diluted in a volume of 1.5% (v/v) crop oil concentrate or water to obtain 12× stock solutions. […] Application solutions were prepared by adding an appropriate amount of each stock solution (e.g., 1 mL) and diluted to the appropriate final concentrations with the addition of an appropriate amount of an aqueous mixture of 1.5% (v/v) crop oil concentrate so that the final spray solutions contained 1.25% (v/v) crop oil concentrate. […]

CYPIR = assay: as above; assay type: in vivo, Cyperus iria L.
Description: as §12
as §2, with “(Compound A),” for “(compound A)”, “concentrate),” for “concentrate)”
as §13, §9, §10, §11

DIGSA = assay: as above; assay type: in vivo, Digitaria sanguinalis (L.) Scop.
Description: as §12
as §2, with “(Compound A),” for “(compound A)”, “concentrate),” for “concentrate)”
as §13, §9, §14, §15, §16

SCPMA = assay: In-water applied herbicidal mixtures, greenhouse, transplanted paddy rice weeds; assay type: in vivo
Procedure: as §1, §2, §3, §4, §5, §6, §7, §8

ECHOR = assay: as above; assay type: in vivo, Echinochloa oryzoides (Ard.) Fritsch
Procedure: as §1, §2, §3, §4, §5, §6, §7, §8

BRAPP = assay: Post-emergence foliar-applied herbicidal mixtures, greenhouse, direct seeded rice weeds; assay type: in vivo
Description: as §12
as §2, with “(Compound A),” for “(compound A)”, “concentrate),” for “concentrate)”
as §13, §9, §14, §15, §16

With `COc1c(Cl)ccc(-c2nc(C(=O)OCc3ccccc3)c(Cl)c(N)c2F)c1F` [Compound A Benzyl Ester] as the compound, how does the “Visual Weed Control (%) - 21 DAA CYPRO Obs” value (CYPRO; 4.38 g ae/ha) read?
Its value is 20% and 30%.

What about the “Visual Weed Control (%) - 21 DAA CYPRO Obs” value (CYPRO; 8.75 g ae/ha) of the same compound?
Its value is 65% and 60%.

What about the “Visual Weed Control (%) - 22 DAA LEFCH Obs” value (LEFCH [1]) of the same compound?
Its value is 0%.

And the “Visual Weed Control (%) - 21 DAA FIMMI Obs” value (FIMMI)?
Its value is 20%.

And the “Visual Weed Control (%) - 22 DAA SCPJU Obs” value (SCPJU)?
The value was 80%.

And the “Visual Weed Control (%) - 20 DAA LEFCH Obs” value (LEFCH [2]; 4.38 g ae/ha)?
The value was 0%.

And the “Visual Weed Control (%) - 20 DAA LEFCH Obs” value (LEFCH [2]; 8.75 g ae/ha)?
The value was 20%.

What about the “Visual Weed Control (%) - 20 DAA LEFCH Obs” value (LEFCH [2]; 17.5 g ae/ha) of the same compound?
The value was 40%.

What about the “Visual Weed Control (%) - 22 DAA CYPIR Obs” value (CYPIR; 4.38 g ae/ha) of the same compound?
The value was 25%.

What about the “Visual Weed Control (%) - 22 DAA CYPIR Obs” value (CYPIR; 8.75 g ae/ha) of the same compound?
The value was 50%.

And the “Visual Weed Control (%) - 21 DAA DIGSA Obs” value (DIGSA; 17.5 g ae/ha)?
Its value is 23%.

And the “Visual Weed Control (%) - 21 DAA DIGSA Obs” value (DIGSA; 35 g ae/ha)?
The value was 38%.

And the “Visual Weed Control (%) - 22 DAA SCPMA Obs” value (SCPMA; 4.38 g ae/ha)?
Its value is 0%.

What about the “Visual Weed Control (%) - 22 DAA SCPMA Obs” value (SCPMA; 8.75 g ae/ha) of the same compound?
Its value is 0%.

And the “Visual Weed Control (%) - 22 DAA SCPMA Obs” value (SCPMA; 17.5 g ae/ha)?
The value was 0%.

What about the “Visual Weed Control (%) - 20 DAA SCPMA Obs” value (SCPMA; 70 g ae/ha) of the same compound?
Its value is 0%.

What about the “Visual Weed Control (%) - 21 DAA ECHOR Obs” value (ECHOR; 4.38 g ae/ha) of the same compound?
Its value is 0%.

And the “Visual Weed Control (%) - 21 DAA ECHOR Obs” value (ECHOR; 8.75 g ae/ha)?
The value was 10%.

What about the “Visual Weed Control (%) - 20 DAA ECHOR Obs” value (ECHOR; 35 g ae/ha) of the same compound?
The value was 73%.

What about the “Visual Weed Control (%) - 20 DAA BRAPP Obs” value (BRAPP; 4.38 g ae/ha) of the same compound?
The value was 40%.

And the “Visual Weed Control (%) - 21 DAA BRAPP Obs” value (BRAPP; 4.38 g ae/ha)?
Its value is 50%.

What about the “Visual Weed Control (%) - 20 DAA BRAPP Obs” value (BRAPP; 8.75 g ae/ha) of the same compound?
The value was 70%.
